These results are taken from BindingDB's records for doi:10.1016/s0960-894x(99)00565-x (Dupont Pharmaceuticals, 1999).

In this test the target is T1, Gag-Pol polyprotein [588-1027]/[588-1147] (Human immunodeficiency virus 1, UniProt P04585).
T1 construct: 588-1027; 588-1147
As to the kind of experiment: HIV-1 RT Assay. Conditions: pH 8.2; 37 °C.

SMILES strings stand for the structures. Bounds are passed on as bounds.

In turn, `CC(=O)Nc1ccc2c(c1)C(C#CC1CC1)(C(F)(F)F)OC(=O)N2` (configuration not stated) showed an IC50 greater than 2000 nM. In the case of `CC(=O)Nc1ccc2c(c1)C(C#CC(C)C)(C(F)(F)F)OC(=O)N2` (configuration not stated) it was greater than 2000 nM.

As usually defined, the IC50 is the midpoint of a concentration-inhibition curve. A higher IC50 goes with lower potency.
